Patent US10143201B2, “Fungicidal compositions” (Syngenta Crop Protection LLC, priority 2007, dated 2018)

Assays:
Type in all cases: cell-based
Gaeumannomyces graminis = test: Fungicidal action against Gaeumannomyces graminis (take-all of cereals), microtiter growth inhibition; conditions: Gaeumannomyces graminis, compound alone
Procedure: Example B7: Fungicidal Action Against Gaeumannomyces graminis (Take-all of Cereals)
(§1) Mycelial fragments of the fungus from cryogenic storage are directly mixed into nutrient broth (PDB potato dextrose broth). After placing a (DMSO) solution of the test compounds into a microtiter plate (96-well format) the nutrient broth containing the fungal spores is added. The test plates are incubated at 24 C and the inhibition of growth is evaluated after 4 days.

Alternaria solani = test: Fungicidal action against Alternaria solani (early blight tomato/potato), microtiter growth inhibition; conditions: alone
Procedure: Example B4: Fungicidal Action Against Alternaria solani (Early Blight Tomato/Potato)
as §1, with “Conidia” for “Mycelial fragments”, “24° C.” for “24 C”, “3” for “4”, “days. The expected fungicidal action is calculated according to the Colby method.” for “days.”

[1] = test system: Pseudocercosporella herpotrichoides (syn. Tapesia yallundae); test: Fungicidal action against Pseudocercosporella herpotrichoides (eye spot of cereals), microtiter growth inhibition; conditions: alone; for inhibition at 0.25 ppm / inhibition at 0.0156 ppm / inhibition at 0.0313 ppm / inhibition at 0.125 ppm: Oculimacula yallundae; for inhibition at 0.25 ppm / inhibition at 0.0156 ppm: read-out: % activity
Procedure: Example B5: Funicidal Action Against Pseudocercosporella herpotrichoides (Syn. Tapesia yallundae), Eye Spot of Cereals
as §1, with “Conidia” for “Mycelial fragments”, “24° C.” for “24 C”, “days. The expected fungicidal action is calculated according to the Colby method.” for “days.”

Pyrenophora teres = test: Fungicidal action against Pyrenophora teres (net blotch), microtiter growth inhibition; conditions: for % activity: alone; for inhibition at 0.25 ppm: 0.2500 ppm; for inhibition at 0.5 ppm: 0.5000 ppm; for inhibition at 0.125 ppm: 0.1250 ppm
Procedure: Example B6: Fungicidal Action Against Pyrenophora teres (Net Blotch)
as §1, with “Conidia” for “Mycelial fragments”, “24° C.” for “24 C”, “days. The expected fungicidal action is calculated according to the Colby method.” for “days.”

[2] = test system: Cercospora arachidicola (syn. Mycosphaerella arachidis); test: Fungicidal action against Cercospora arachidicola (brown leaf spot of groundnut), microtiter growth inhibition; conditions: Mycosphaerella arachidis, compound alone
Procedure: Example B8: Fungicidal Action Against Cercospora arachidicola (Syn. Mycosphaerella arachidis), Brown Leaf Spot of Groundnut (Peanut)
as §1, with “Conidia of” for “Mycelial fragments of”, “after 7” for “after 4”

Septoria tritici = test: Fungicidal action against Septoria tritici (leaf blotch), microtiter growth inhibition; conditions: alone; for inhibition at 0.125 ppm: 0.1250 ppm
Procedure: Example B3: Fungicidal Action Against Septoria tritici (Leaf Blotch)
as §1, with “Conidia” for “Mycelial fragments”, “24° C.” for “24 C”, “days. The expected fungicidal action is calculated according to the Colby method.” for “days.”

Botrytis cinerea = test: Fungicidal action against Botrytis cinerea (gray mould), microtiter growth inhibition; conditions: alone
Procedure: Example B2: Fungicidal Action Against Botrytis cinerea (Gray Mould)
as §1, with “Conidia” for “Mycelial fragments”, “24° C.” for “24 C”, “days. The expected fungicidal action is calculated according to the Colby method.” for “days.”

[3] = Alternaria solani, 0.2500 ppm, read-out: % activity
[4] = Pyrenophora teres, compound alone, read-out: % activity
[5] = Zymoseptoria tritici, read-out: % activity
[6] = Pyrenophora teres, compound alone

CC(C)(C)C(O)(CCc1ccc(Cl)cc1)Cn1cncn1 (stereo not shown) [Tebuconazole]
inhibition at 0.125 ppm (Gaeumannomyces graminis; 0.1250 ppm): 50%

CC(C1CC1)C(O)(Cn1cncn1)c1ccc(Cl)cc1 (stereo not shown) [Cyproconazole, cyproconazole]
inhibition at 0.125 ppm (Alternaria solani; Alternaria solani, 0.1250 ppm): 0%
inhibition at 0.25 ppm (Alternaria solani; [3]): 0%
inhibition at 0.5 ppm (Alternaria solani; Alternaria solani, 0.5000 ppm, read-out: % activity): 20%
inhibition at 0.0039 ppm (Gaeumannomyces graminis; read-out: % activity): 0%
inhibition at 0.0313 ppm (Gaeumannomyces graminis; 0.0313 ppm, read-out: % activity): 0%
inhibition at 0.0625 ppm (Gaeumannomyces graminis; read-out: % activity): 20%
inhibition at 0.25 ppm ([1]; 0.2500 ppm): 70%

CCCC1COC(Cn2cncn2)(c2ccc(Cl)cc2Cl)O1 (stereo not shown) [Propiconazole]
inhibition at 0.0039 ppm (Gaeumannomyces graminis; read-out: % activity): 0%
inhibition at 0.0078 ppm (Gaeumannomyces graminis; 0.0078 ppm, read-out: % activity): 0%
inhibition at 0.0625 ppm (Gaeumannomyces graminis; read-out: % activity): 0%
inhibition at 1 ppm (Pyrenophora teres; [4]): 20%
inhibition at 2 ppm (Pyrenophora teres; Pyrenophora teres, compound alone, 2.0000 ppm): 50%
inhibition at 0.0313 ppm ([2]; 0.0313 ppm): 20%
inhibition at 0.0625 ppm ([2]; 0.0625 ppm): 70%
inhibition at 0.125 ppm ([2]; 0.1250 ppm): 90%

CO/C=C(/C(=O)OC)c1ccccc1COc1cccc(C(F)(F)F)n1 [Picoxystrobin, picoxystrobin]
% activity (Septoria tritici; 0.0156 ppm): 20%
% activity (Septoria tritici; 0.0313 ppm): 70%
% activity (Botrytis cinerea; 0.0625 ppm): 0%
% activity (Botrytis cinerea; 0.1250 ppm): 0%
% activity (Botrytis cinerea; 0.2500 ppm): 0%
% activity (Botrytis cinerea; 0.5000 ppm): 0%
% activity (Botrytis cinerea; 1.0000 ppm): 0%
% activity (Botrytis cinerea; 2.0000 ppm): 0%
% activity (Alternaria solani; 0.0078 ppm): 0%
% activity (Alternaria solani; 0.0156 ppm): 20%
% activity (Alternaria solani; 0.0313 ppm): 20%
% activity (Alternaria solani; 0.0625 ppm): 50%
% activity (Alternaria solani; 0.1250 ppm): 50%
% activity (Alternaria solani; 0.2500 ppm): 50%
% activity (Alternaria solani; 0.5000 ppm): 50%
% activity (Alternaria solani; 2.0000 ppm): 50%
% activity (Pyrenophora teres; 0.0313 ppm): 50%
% activity (Pyrenophora teres; 0.0625 ppm): 70%
% activity ([1]; 0.0078 ppm): 0%
% activity ([1]; 0.0156 ppm): 20%
% activity ([1]; 0.0313 ppm): 50%
% activity ([1]; 0.0625 ppm): 50%
% activity ([1]; 0.1250 ppm): 50%
% activity ([1]; 0.2500 ppm): 50%
% activity ([1]; 0.5000 ppm): 50%
% activity ([1]; 1.0000 ppm): 70%

N#Cc1c(Cl)c(Cl)c(Cl)c(C#N)c1Cl [Chlorothalonil, chlorothalonil]
inhibition at 0.0625 ppm (Septoria tritici; Zymoseptoria tritici, 0.0625 ppm, read-out: % activity): 0%
inhibition at 0.125 ppm (Septoria tritici; [5]): 0%
inhibition at 0.25 ppm (Pyrenophora teres; [6]): 0%
inhibition at 0.5 ppm (Pyrenophora teres; [4]): 20%
inhibition at 0.0156 ppm ([1]; 0.0156 ppm): 0%
inhibition at 0.0313 ppm ([1]; 0.0313 ppm): 50%
inhibition at 0.125 ppm ([1]; 0.1250 ppm): 90%

Cc1cc(C2CC2)nc(Nc2ccccc2)n1 [Cyprodinil, cyprodinil]
inhibition at 0.125 ppm (Septoria tritici; [5]): 0%
inhibition at 0.25 ppm (Septoria tritici; Zymoseptoria tritici, 0.2500 ppm, read-out: % activity): 0%
inhibition at 0.5 ppm (Septoria tritici; Zymoseptoria tritici, 0.5000 ppm, read-out: % activity): 0%
inhibition at 1 ppm (Septoria tritici; Zymoseptoria tritici, 1.0000 ppm): 0%
inhibition at 2 ppm (Septoria tritici; Zymoseptoria tritici, 2.0000 ppm): 0%
inhibition at 0.25 ppm (Alternaria solani; [3]): 50%
inhibition at 0.0313 ppm (Pyrenophora teres; Pyrenophora teres, compound alone, 0.0313 ppm): 20%
inhibition at 0.0625 ppm (Pyrenophora teres; Pyrenophora teres, compound alone, 0.0625 ppm, read-out: % activity): 20%
inhibition at 0.125 ppm (Pyrenophora teres; [4]): 50%
inhibition at 0.25 ppm (Pyrenophora teres; [6]): 50%
inhibition at 0.0156 ppm ([1]; 0.0156 ppm): 20%
inhibition at 0.0313 ppm ([1]; 0.0313 ppm): 70%

Fc1ccc([C@]2(Cn3cncn3)O[C@H]2c2ccccc2Cl)cc1 (racemic) [Epoxiconazole, epoxiconazole]
inhibition at 0.125 ppm (Pyrenophora teres; [4]): 20%
inhibition at 0.5 ppm (Pyrenophora teres; [4]): 50%
inhibition at 1 ppm (Pyrenophora teres; [4]): 70%
inhibition at 0.0156 ppm ([1]; 0.0156 ppm): 0%
inhibition at 0.125 ppm ([1]; 0.1250 ppm): 70%
inhibition at 0.25 ppm ([1]; 0.2500 ppm): 90%
